Reference: article PMC7569237 (Translational Oncology, 2020)

Assay: Plasma and tumor levels in MIA PaCa-2 tumor-bearing nude mice
Type: in vivo
Settings: MIA PaCa-2-bearing mice, CPT-11 10 mg/kg iv; SN38 = released from CPT-11

Row | Time within which concentrations rapidly decreased in plasma and tumor [h] | Structure (SMILES)
1 | ≤ 48 | CCc1c2c(nc3ccc(OC(=O)N4CCC(N5CCCCC5)CC4)cc13)-c1cc3c(c(=O)n1C2)COC(=O)[C@]3(O)CC [CPT-11, 7-ethyl-10-[4-(1-piperidino)-1-piperidino]carbonyloxycamptothecin]
2 | ≤ 48 | CCc1c2c(nc3ccc(O)cc13)-c1cc3c(c(=O)n1C2)COC(=O)[C@]3(O)CC [SN38, 7-ethyl-10-hydroxycamptothecin]
